Measurements as given in patent US20090203050A1 (The Regents of the University of California, priority 2005, published 2009).
“Also recorded” adds a separate entry of the source.

B1: TRAIL: tumor necrosis factor (TNF)-related apoptosis-inducing ligand (protein, UniProt P50591 1-281, looked up)
Tumor necrosis factor ligand …: MAMMEVQGGPSLGQTCVLIVIFTVLLQSLCVAVTYVYFTNELKQMQDKYSKSGIACFLKEDDSYWDPNDEESMNSPCWQVKWQLRQLVRKMILRTSEETISTVQEKQQNISPLVRERGPQRVAAHITGTRGRSNTLSSPNSKNEKALGRKINSWESSRSGHSFLSNLHLRNGELVIHEKGFYYIYSQTYFRFQEEIKENTKNDKQMVQYIYKYTSYPDPILLMKSARNSCWSKDAEYGLYSIYQGGIFELKENDRIFVSVTNEHLIDMDHEASFFGAFLVG

Columns and labels:
Ramos-RR1 = test: DNA fragmentation (PI) apoptosis assay, Ramos-RR1; details: for resistance of clone compared with wt cells / resistance of clone compared with wt cells, value in parentheses / apoptosis, drug alone: 18 h; for apoptosis, drug after DHMEQ pre-treatment: DHMEQ 20 μg/ml 2 h, then highest drug concentration 18 h; for apoptosis, drug alone: highest drug concentration
Description: (§1) Percentage of apoptotic cells was determined by evaluation of propidium iodide (PI) stained preparations of cells using an EpicXL flow-cytometer. Cellular debris was excluded from analysis by raising the forward scatter threshold, and DNA content of the intact nuclei was recorded on a logarithmic scale (Nicoletti, I. et al., J. Immunol. Methods, 139:271-9 (1991)). Percent apoptosis is represented as percentage of hypodiploid cells accumulated at sub-G0 phase of cell cycle.
(§2) Cells were left either untreated or pre-treated with DHMEQ (36), bortezomib (Goy, A. et al., Clin. Lymphoma, 4:230-7 (2004)) and PD098059 (Alessi, D. et al., J. Biol. Chem., 270:27489-94 (1995)). Escalating concentrations of various drugs were then added and the percentage of apoptosis was measured.

Daudi-RR1 = test: DNA fragmentation (PI) apoptosis assay, Daudi-RR1; details: for resistance of clone compared with wt cells / resistance of clone compared with wt cells, value in parentheses / apoptosis, drug alone: 18 h; for apoptosis, drug after DHMEQ pre-treatment: DHMEQ 20 μg/ml 2 h, then highest drug concentration 18 h; for apoptosis, drug alone: highest drug concentration
Description: as §1, §2

Ramos wt cells = test: DNA fragmentation (PI) apoptosis assay, Ramos wt; type: cell-based, human
Ramos and Daudi = details: ERK1/2 pathway inhibitors; cited from earlier work
Daudi wt cells = test: DNA fragmentation (PI) apoptosis assay, Daudi wt; type: cell-based, human
RR clones = test: DNA fragmentation apoptosis assay, RR clones (pooled statements); type: cell-based, human; details: drugs e.g. Paclitaxel, Vincristine, VP-16, CDDP, Adriamycin
Description: Thus, we examined if such sensitizing agents can reverse the resistance in the RR clones.
as §1, §2

[1] = tested on: 2F7, Ramos and Daudi wild type and RR clones; test: TRAIL-mediated apoptosis in B-NHL cell lines and RR clones (DNA fragmentation); type: cell-based, human; details: for sensitization to TRAIL-induced apoptosis: inhibitor pretreatment 2 h, then TRAIL 18 h, rituximab-sensitive and -resistant cells
Source text: Patients with B-NHL respond initially to conventional chemotherapy and/or to immunotherapy with rituximab (alone or in combination with chemotherapy). However, patients develop resistance to these modalities and novel approaches are needed. TRAIL is a cytotoxic molecule that exerts selective anti-tumor cytotoxic activity with minimal toxicity to normal tissues. Further, TRAIL or agonist monoclonal antibody (mAb) to TRAIL receptors, DR4 and DR5, are currently being tested clinically. The present study investigated the sensitivity of B-NHL cell lines to TRAIL-mediated apoptosis using the AIDS-related NHL (ARL) B-cell line, 2F7, and the B-NHL cell lines, Ramos and Daudi. Also, to recapitulate various aspects of acquired rituximab-resistance, we have generated rituximab-resistant (RR) clones from the parental wild type (wt) cells. […] We then examined means to reverse […] resistance. We and others have reported that inhibition of NFκB activity can sensitize TRAIL-resistant tumor cells to TRAIL-induced apoptosis. […] Both the rituximab-sensitive and rituximab-resistant tumor cells were sensitized by these inhibitors, though higher concentrations were required for sensitization of the RR clones. […] Based on the findings, patients with resistant B-NHL can be treated with combination of TRAIL/anti-DR4 or DR5 mAb and NFκB inhibitors. Alternatively, these patients can be treated with agents that up-regulate TRAIL expression on host effectors (e.g., T cells, NK cells) in combination with NFκB inhibitors.

2F7RR1 clone = test: Chemotherapeutic drug-induced apoptosis in 2F7RR1; type: cell-based
Source text: (§3) Accordingly, we examined whether inhibition of Bcl-2 in 2F7RR1 can reverse chemoresistance. Since Bcl-2 is under the transcriptional regulation of NFκB, we examined the effect of the NF-κB inhibitors Bortezomib and DHMEQ (Kikuchi, et al., Cancer Research, 63:107 (2003)).
(§4) The mechanism by which B-NHL patients resist treatment is not known. […] We examined the effect of various chemical inhibitors of this signaling pathway on chemosensitization.

[2] = tested on: p38MAPK/NF-κB/YY1/STAT3 signaling pathways, Bcl-2; test: Molecular analysis of signaling in 2F7RR1; type: cell-based; details: 2F7-RR1
Source text: as §3, §4

NF-κB and AP-1 DBA = test: EMSA in RR clones; type: cell-based, human
Description: FIG. 8. […] A. Total cell lysates (40 μg) were subjected to western blot analysis using phospho-specific Abs for various components of the NF-κB and ERK1/2 pathways. B. The kinase activity of the IKK complex using IκB-α peptide (aa 1-50 including S^32/36) and ERK1/2 using MAPK kinase substrates 4 (aa 172-192) using immune-complex kinase assay. C. […] 10 μg of nuclear lysates were subjected to EMSA (n=2) (19, 20).
The DBAs were evaluated using biotin-labeled oligonucleotide AP-1 (5′-[…]-3′) (Lee, W et al., Cell, 49:741-52 (1987)) and NF-κB (5′-[…] […]-3′) probes (Harada, H. et al., Mol. Cell Biol., 14:1500-9 (1994)) using EMSA kit (Panomics, Inc., Redwood City, Calif.) according to manufacturer's instructions. 10 μg of nuclear extracts were subjected to […] 5% PAGE and developed (Jazirehi, A. et al., Cancer Research, 64:7117-26 (2004); Jazirehi, A. et al., Cancer Research, 65:264-76 (2005)).
Next, alterations in the DBA of NF-κB and AP-1 in the clones were examined.

[3] = wt Ramos, 2MAM-A3 15 μg/ml 7 h, paclitaxel 10 nM 18 h
[4] = Ramos-RR1, 2MAM-A3 35 μg/ml 7 h, paclitaxel 10 nM 18 h

Molecule	resistance of clone compared with wt cells (Ramos-RR1; Ramos-RR1) [folds]	resistance of clone compared with wt cells, value in parentheses (Ramos-RR1; Ramos-RR1) [%]	apoptosis, drug after DHMEQ pre-treatment (Ramos-RR1; Ramos-RR1) [%]	apoptosis, drug alone (Ramos-RR1; Ramos-RR1) [%]	resistance of clone compared with wt cells (Daudi-RR1; Daudi-RR1) [folds]	resistance of clone compared with wt cells, value in parentheses (Daudi-RR1; Daudi-RR1) [%]	apoptosis, drug after DHMEQ pre-treatment (Daudi-RR1; Daudi-RR1) [%]	apoptosis, drug alone (Daudi-RR1; Daudi-RR1) [%]	sensitization of RR clones to various chemotherapeutic drugs (RR clones)	other results
COc1cccc2c1C(=O)c1c(O)c3c(c(O)c1C2=O)C[C@@](O)(C(=O)CO)C[C@@H]3O[C@H]1C[C@H](N)[C@H](O)[C@H](C)O1 [ADR]	2.3	158	32.4±2.9	14.3±3.3	1.94	149	40.5±3.1	12.4±2.5		
CC(=O)O[C@H]1C(=O)[C@@]2(C)[C@H]([C@H](OC(=O)c3ccccc3)[C@]3(O)C[C@H](OC(=O)[C@H](O)[C@@H](NC(=O)c4ccccc4)c4ccccc4)C(C)=C1C3(C)C)[C@]1(OC(C)=O)CO[C@@H]1C[C@@H]2O [paclitaxel]	1.54	136	46.5±2.3	20.4±3.0	1.63	139	42.0±1.9	14.9±3.2		apoptosis, paclitaxel alone (Ramos wt cells; wt Ramos, paclitaxel 10 nM 18 h): 13.6±1.3%; apoptosis, paclitaxel alone (Ramos-RR1; Ramos-RR1, paclitaxel 10 nM 18 h): 8.42±2.1%
N#CC(=C(/N)Sc1ccccc1N)/C(C#N)=C(/N)Sc1ccccc1N [UO126]										sensitization to drug-induced apoptosis (Ramos and Daudi): also sensitize the cells
CC[C@]1(O)C[C@H]2CN(CCc3c([nH]c4ccccc34)[C@@](C(=O)OC)(c3cc4c(cc3OC)N(C=O)[C@H]3[C@@](O)(C(=O)OC)[C@H](OC(C)=O)[C@]5(CC)C=CCN6CC[C@]43[C@@H]65)C2)C1 [vincristine]	1.42	130	53.5±2.2	15.3±1.1	1.66	140	36.6±2.3	14.2±1.7		
CCCC[C@H]1C(=O)O[C@H](C)[C@H](NC(=O)c2cccc(NC=O)c2OC)C(=O)O[C@@H](C)[C@@H]1OC(=O)CC(C)C [2MAM-A3, 2-methoxyantimycin-A3]									sensitized	apoptosis, paclitaxel after 2MAM-A3 pre-treatment (Ramos wt cells; [3]): 26.7±2.2%; augmentation of paclitaxel cytotoxicity (Ramos wt cells; [3]): 1.96 folds; augmentation of paclitaxel cytotoxicity (Daudi wt cells; 2MAM-A3 15 μg/ml 7 h, paclitaxel 10 nM 18 h): 1.98 fold; apoptosis, paclitaxel after 2MAM-A3 pre-treatment (Ramos-RR1; [4]): 39.7±2.4%; augmentation of paclitaxel cytotoxicity (Ramos-RR1; [4]): 4.71 folds; augmentation of paclitaxel cytotoxicity (Daudi-RR1; Daudi-RR1, 2MAM-A3 35 μg/ml 7 h, paclitaxel 10 nM 18 h): 3.2 folds
COc1cc([C@@H]2c3cc4c(cc3[C@@H](O[C@@H]3O[C@@H]5CO[C@@H](C)O[C@H]5[C@H](O)[C@H]3O)[C@H]3COC(=O)[C@H]23)OCO4)cc(OC)c1O [VP-16]	1.8	145	53.0±2.6	10.3±1.1	2.97	167	32.0±2.2	11.8±0.9		
CC(C)(C)c1ccc(S(=O)(=O)/C=C/C#N)cc1 [Bay 11-7085]									sensitized	sensitization to TRAIL-induced apoptosis [1]: significant augmentation of apoptosis and synergy was achieved
N.N.[Cl][Pt][Cl] [CDDP]	1.41	120	61.2±2.1	19.0±0.7	1.95	149	36.6±0.9	25.7±3.1		
CC(C)C[C@H](NC(=O)[C@H](Cc1ccccc1)NC(=O)c1cnccn1)B(O)O [Bortezomib]									sensitized	enhanced cytotoxicity of drugs by inhibitor (Ramos-RR1): 1.8-5.1 folds; enhanced cytotoxicity of drugs by inhibitor (Daudi-RR1): 1.7-3.3 folds; sensitization to TRAIL-induced apoptosis [1]: significant augmentation of apoptosis and synergy was achieved; chemosensitization to drug-induced apoptosis (taxol, vincristine, ADR, CDDP, VP16) (2F7RR1 clone): reversal of resistance; also recorded: significantly sensitized; effect on NF-kB, YY1 and Bcl-2 expression [2]: inhibition of NF-kB, YY1 and downregulated Bcl-2 expression
C[S+]([O-])c1ccc(-c2nc(-c3ccncc3)c(-c3ccc(F)cc3)[nH]2)cc1 (stereo not shown) [SB 203580]									sensitized	
O=C1Nc2ccc(I)cc2/C1=C/c1cc(Br)c(O)c(Br)c1 [GW 5074]										sensitization to drug-induced apoptosis (Ramos and Daudi): also sensitize the cells
COc1cccc(-c2cc(=O)c3ccccc3o2)c1N [PD098059, [2-(2′-amino-3′-methoxyphenyl)-oxanaphthalen-4-one]]									sensitized	enhanced cytotoxicity of drugs by inhibitor (Ramos-RR1): 1.8-3.1 folds; enhanced cytotoxicity of drugs by inhibitor (Daudi-RR1): 1.5-2.7 folds; NF-κB and AP-1 DBA (EMSA) (NF-κB and AP-1 DBA): preferentially reduced; sensitization to drug-induced apoptosis (Ramos and Daudi): also sensitize the cells
cross-linked rituximab: 50 μg/ml anti-human immunoglobulin (hIg)+20 μg/ml rituximab										apoptosis (Ramos wt cells; Ramos wt, 50 μg/ml anti-hIg + 20 μg/ml rituximab, 24 h): 29.2±2.4%; apoptosis (Daudi wt cells; 50 μg/ml anti-hIg + 20 μg/ml rituximab, 24 h): 32.8±2.1%; higher threshold to cross-linked rituximab-mediated apoptosis vs wt (Ramos-RR1; Ramos-RR1): 2.86 folds; higher threshold to cross-linked rituximab-mediated apoptosis vs wt (Daudi-RR1; Daudi-RR1): 2.56 folds
B1										sensitivity to TRAIL-mediated apoptosis ([1]; wild type and RR1 cells, TRAIL 1-250 ng/ml, 18 h): resistant
